These results are taken from patent US10351575B2, “Bicyclic urea, thiourea, guanidine and cyanoguanidine compounds useful for the treatment of pain” (Array BioPharma Inc., priority 2012, dated 2019).

As a reminder, the pIC50 is −log10 of the IC50, conventionally taken in molar units.

pIC50: −log10 of the molar value.

The target of this assay is His-tagged recombinant human TrkA (Homo sapiens (Human), UniProt P04629). As to the kind of experiment: TrkA LanthaScreen Eu Kinase Binding Assay. The conditions noted are these: averaged IC50; TR-FRET binding, 60 min, 22° C.; read-out: TrkA Enzyme IC50. A digest of the protocol: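 Three-fold compound dilutions (2% DMSO final) were incubated 60 min at 22° C. with 5 nM His-TrkA cytoplasmic domain, tracer 236 (4 nM), biotinylated anti-His (2 nM) and europium streptavidin (2 nM) in MOPS pH 7.5 buffer. Emission ratio 665/615 gave percent of control; four-parameter fit yielded IC50.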
His-tagged recombinant human TrkA, sequence (P04629 440-796): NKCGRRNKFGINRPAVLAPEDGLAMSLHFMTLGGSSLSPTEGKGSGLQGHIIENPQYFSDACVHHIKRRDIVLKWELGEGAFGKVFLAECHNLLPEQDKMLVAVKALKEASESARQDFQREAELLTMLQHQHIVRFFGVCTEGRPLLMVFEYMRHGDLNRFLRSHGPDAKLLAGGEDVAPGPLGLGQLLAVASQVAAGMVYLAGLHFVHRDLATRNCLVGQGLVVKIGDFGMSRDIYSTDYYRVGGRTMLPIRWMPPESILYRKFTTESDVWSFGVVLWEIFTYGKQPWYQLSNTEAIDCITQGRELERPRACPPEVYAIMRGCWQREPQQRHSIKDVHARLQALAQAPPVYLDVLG
(Time-resolved FRET reads energy transfer from a long-lived donor to a nearby acceptor.)
For the molecule `CCOc1nn(-c2ccccc2)c(NC(=O)NC2CCc3ccccc32)c1C` (stereo not drawn) [Example 53, 1-(2,3-dihydro-1H-inden-1-yl)-3-(3-ethoxy-4-methyl-1-phenyl-1H-pyrazol-5-yl)urea], the negative-log IC50 (pIC50) was 6.00 to 7.00.
The same measure for `CCOc1nn(-c2ccccc2)c(NC(=O)N[C@H]2CCc3ccccc32)c1C` [Example 54, (S)-1-(2,3-dihydro-1H-inden-1-yl)-3-(3-ethoxy-4-methyl-1-phenyl-1H-pyrazol-5-yl)urea]: 6.00 to 7.00; for `CNC(=O)c1nn(-c2ccccc2)c(NC(=O)N[C@@H]2c3ccccc3C3(CC3)[C@H]2O)c1C` [Example 59, 215-(3-(trans-2′-hydroxy-2′,3′-dihydrospiro[cyclopropane-1,1′-inden]-3′-yl)ureido)-N,4-dimethyl-1-phenyl-1H-pyrazole-3-carboxamide]: greater than 7.00; for `Cc1c(-c2cnn(C)c2)nn(-c2ccccc2)c1NC(=O)N[C@@H]1c2ccccc2C[C@H]1O` [Example 65, 1-(1′,4-dimethyl-1-phenyl-1H,1′H-[3,4′-bipyrazol]-5-yl)-3-((1R,2R)-2-hydroxy-2,3-dihydro-1H-inden-1-yl)urea]: greater than 7.00.
`Cc1ncc(-c2nn(-c3ccccc3)c(NC(=O)N[C@@H]3c4ccccc4C[C@H]3O)c2C)cn1` [Example 66, 1-((1R,2R)-2-hydroxy-2,3-dihydro-1H-inden-1-yl)-3-(4-methyl-3-(2-methylpyrimidin-5-yl)-1-phenyl-1H-pyrazol-5-yl)urea]: the pIC50 is greater than 7.00.
Consider `CCOc1ncc(-c2nn(-c3ccccc3)c(NC(=O)N[C@@H]3c4ccccc4C[C@H]3O)c2C)cn1` [Example 67, 1-(3-(2-ethoxypyrimidin-5-yl)-4-methyl-1-phenyl-1H-pyrazol-5-yl)-3-((1R,2R)-2-hydroxy-2,3-dihydro-1H-inden-1-yl)urea], for which the pIC50 was greater than 7.00.
With `COc1ncc(-c2nn(-c3ccccc3)c(NC(=O)N[C@@H]3c4ccccc4C[C@H]3O)c2C)cn1` [Example 68, 1-((1R,2R)-2-hydroxy-2,3-dihydro-1H-inden-1-yl)-3-(3-(2-methoxypyrimidin-5-yl)-4-methyl-1-phenyl-1H-pyrazol-5-yl)urea], the negative-log IC50 (pIC50) was greater than 7.00.
Take `Cc1c(-c2cc(C)c(=O)n(C)c2)nn(-c2ccccc2)c1NC(=O)N[C@@H]1c2ccccc2C[C@H]1O` [Example 69, 1-(3-(1,5-dimethyl-6-oxo-1,6-dihydropyridin-3-yl)-4-methyl-1-phenyl-1H-pyrazol-5-yl)-3-((1R,2R)-2-hydroxy-2,3-dihydro-1H-inden-1-yl)urea]: the negative-log IC50 (pIC50) was greater than 7.00.
Consider `Cc1c(-c2cnn(C)c2)nn(-c2ccccc2)c1NC(=O)N[C@@H]1c2cc(Cl)ccc2C[C@H]1O` [Example 70, 1-((1,2-trans)-6-chloro-2-hydroxy-2,3-dihydro-1H-inden-1-yl)-3-(1′,4-dimethyl-1-phenyl-1H,1′H-[3,4′-bipyrazol]-5-yl)urea], for which the pIC50 was greater than 7.00.
As to `Cc1ncc(-c2nn(-c3ccccc3)c(NC(=O)N[C@@H]3c4cc(Cl)ccc4C[C@H]3O)c2C)cn1` [Example 71, 1-((1,2-trans)-6-chloro-2-hydroxy-2,3-dihydro-1H-inden-1-yl)-3-(4-methyl-3-(2-methylpyrimidin-5-yl)-1-phenyl-1H-pyrazol-5-yl)urea], the negative-log IC50 (pIC50) was greater than 7.00.
On to `Cc1c(-c2cnn(C)c2)nn(-c2ccccc2)c1NC(=O)N[C@@H]1c2ccccc2C(C)(C)[C@H]1O` [Example 72], for which the pIC50 is greater than 7.00.
On to `Cc1ncc(-c2nn(-c3ccccc3)c(NC(=O)N[C@@H]3c4ccccc4C(C)(C)[C@H]3O)c2C)cn1` [Example 73, 1-((1,2-trans)-2-hydroxy-3,3-dimethyl-2,3-dihydro-1H-inden-1-yl)-3-(4-methyl-3-(2-methylpyrimidin-5-yl)-1-phenyl-1H-pyrazol-5-yl)urea], for which the pIC50 was greater than 7.00.
With `Cc1c(OC[C@H]2CN(C)CCO2)nn(-c2ccccc2)c1NC(=O)N[C@@H]1c2ccccc2C(C)(C)C[C@H]1O` [Example 74, 1-((1R,2R)-2-hydroxy-4,4-dimethyl-1,2,3,4-tetrahydronaphthalen-1-yl)-3-(4-methyl-3-(((R)-4-methylmorpholin-2-yl)methoxy)-1-phenyl-1H-pyrazol-5-yl)urea] the figure was greater than 7.00; with `Cc1c(OC[C@H]2CN(C)CCO2)nn(-c2ccccc2)c1NC(=O)N[C@H]1c2ccccc2C(C)(C)C[C@@H]1O` [Example 75, 1-((1S,2S)-2-hydroxy-4,4-dimethyl-1,2,3,4-tetrahydronaphthalen-1-yl)-3-(4-methyl-3-(((R)-4-methylmorpholin-2-yl)methoxy)-1-phenyl-1H-pyrazol-5-yl)urea], greater than 7.00; with `Cc1c(OC[C@@H]2CN(C)CCO2)nn(-c2ccccc2)c1NC(=O)N[C@@H]1c2ccccc2C(C)(C)C[C@H]1O` [Example 76, 1-((1R,2R)-2-hydroxy-4,4-dimethyl-1,2,3,4-tetrahydronaphthalen-1-yl)-3-(4-methyl-3-(((S)-4-methylmorpholin-2-yl)methoxy)-1-phenyl-1H-pyrazol-5-yl)urea], greater than 7.00.
With `Cc1c(OC[C@H]2CN(C)CCO2)nn(-c2ccccc2)c1NC(=O)NC1c2cc(F)c(F)cc2C(C)(C)C[C@H]1O` (stereo partly drawn) [Example 77, 1-(trans-6,7-difluoro-2-hydroxy-4,4-dimethyl-1,2,3,4-tetrahydronaphthalen-1-yl)-3-(4-methyl-3-(((R)-4-methylmorpholin-2-yl)methoxy)-1-phenyl-1H-pyrazol-5-yl)urea] the figure was greater than 7.00.
The same measure for `Cc1c(OC[C@H]2CN(C)CCO2)nn(-c2ccccc2)c1NC(=O)NC1c2ccccc2C2(CC2)[C@@H]1O` (stereo partly drawn) [Example 78, 1-(trans-2′-hydroxy-2,3′-dihydrospiro[cyclopropane-1,1′-inden]-3′-yl)-3-(4-methyl-3-(((R)-4-methylmorpholin-2-yl)methoxy)-1-phenyl-1H-pyrazol-5-yl)urea]: greater than 7.00; for `CNC(=O)c1nn(-c2ccccc2)c(NC(=O)N[C@@H]2c3cc(F)c(F)cc3C(C)(C)C[C@H]2O)c1C` [Example 79, 5-(3-((1,2-trans)-6,7-difluoro-2-hydroxy-4,4-dimethyl-1,2,3,4-tetrahydronaphthalen-1-yl)ureido)-N,4-dimethyl-1-phenyl-1H-pyrazole-3-carboxamide]: greater than 7.00; for `Cc1c(-c2cnn(C)c2)nn(-c2ccccc2)c1NC(=O)N[C@@H]1c2cc(F)c(F)cc2C(C)(C)C[C@H]1O` [Example 80, 1-((1,2-trans)-6,7-difluoro-2-hydroxy-4,4-dimethyl-1,2,3,4-tetrahydronaphthalen-1-yl)-3-(1′,4-dimethyl-1-phenyl-1H,1′H-[3,4′-bipyrazol]-5-yl)urea]: greater than 7.00.
For the molecule `Cc1c(OCC2CCN(C)CC2)nn(-c2ccccc2)c1NC(=O)N[C@@H]1c2cc(F)c(F)cc2C(C)(C)C[C@H]1O` [Example 81, 1-((1,2-trans)-6,7-difluoro-2-hydroxy-4,4-dimethyl-1,2,3,4-tetrahydronaphthalen-1-yl)-3-(4-methyl-3-((1-methylpiperidin-4-yl)methoxy)-1-phenyl-1H-pyrazol-5-yl)urea], the negative-log IC50 (pIC50) was greater than 7.00.
Consider `COc1nn(-c2ccccc2)c(NC(=O)N[C@@H]2c3cc(F)c(F)cc3C(C)(C)C[C@H]2O)c1C` [Example 82, 1-((1,2-trans)-6,7-difluoro-2-hydroxy-4,4-dimethyl-1,2,3,4-tetrahydronaphthalen-1-yl)-3-(3-methoxy-4-methyl-1-phenyl-1H-pyrazol-5-yl)urea], for which the pIC50 is greater than 7.00.
